Source: the supplement of paper PMC8967900

Tests used:
Test in all cases: selective drug sensitivity score (sDSS, relative to normal bone marrow) (sDSS (score)); higher = more potent and effective on the cell line relative to normal bone marrow cells
Conditions in all cases: 72 h
380 = system: 380
697 = system: 697
CCRF-CEM = system: CCRF-CEM
CCRF-HSB2 = system: CCRF-HSB2
COG-LL-317 = system: COG-LL-317
COG-LL-319h = system: COG-LL-319h
COG-LL-355h = system: COG-LL-355h
COG-LL-402h = system: COG-LL-402h
HAL-01 = system: HAL-01
KASUMI-10 = system: KASUMI-10
KOPN-8 = system: KOPN-8
MHH-CALL-2 = system: MHH-CALL-2
MHH-CALL-3 = system: MHH-CALL-3
MOLT-4 = system: MOLT-4
NALM-16 = system: NALM-16
RCH-ACV = system: RCH-ACV
SEM cells = system: SEM cells
SUP-B15 = system: SUP-B15
TANOUE = system: TANOUE
TMD5 = system: TMD5
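Further: ALL cell lines in 384-well plates, five doses spanning 10,000-fold, each plate scaled between vehicle and 100 µmol/L benzalkonium chloride controls, sDSS an adapted area-under-curve metric.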

Row | Structure (SMILES) | selective drug sensitivity score 380 | selective drug sensitivity score 697 | selective drug sensitivity score (CCRF-CEM) | selective drug sensitivity score (CCRF-HSB2) | selective drug sensitivity score (COG-LL-317) | selective drug sensitivity score (COG-LL-319h) | selective drug sensitivity score (COG-LL-355h) | selective drug sensitivity score (COG-LL-402h) | selective drug sensitivity score (HAL-01) | selective drug sensitivity score (KASUMI-10) | selective drug sensitivity score (KOPN-8) | selective drug sensitivity score (MHH-CALL-2) | selective drug sensitivity score (MHH-CALL-3) | selective drug sensitivity score (MOLT-4) | selective drug sensitivity score (NALM-16) | selective drug sensitivity score (RCH-ACV) | selective drug sensitivity score (SEM cells) | selective drug sensitivity score (SUP-B15) | selective drug sensitivity score (TANOUE) | selective drug sensitivity score (TMD5)
1 | OC[C@H]1O[C@@H](n2cnc3c2N=CNC[C@H]3O)C[C@@H]1O [Pentostatin] (top concentration 10000 nM) | -0.44 | -0.44 | -0.34 | -0.44 | -0.44 | 3.06 | 1.26 | -0.44 | 0.36 | -0.44 | -0.14 | -0.44 | -0.44 | -0.44 | -0.44 | -0.44 | -0.44 | 0.66 | 0.36 | -0.24
2 | COc1cc2nccc(Oc3ccc(NC(=O)C4(C(=O)Nc5ccc(F)cc5)CC4)cc3)c2cc1OC [Cabozantinib] (top concentration 1000 nM) | -3.62 | -1.42 | -3.62 | 1.98 | -3.62 | -2.22 | 2.18 | -3.62 | 3.88 | 14.1 | 24.9 | -3.62 | -3.62 | -0.92 | 2.68 | -3.62 | 17.6 | 13.5 | -3.62 | -3.62
3 | CNc1nc(Nc2cn(C(C)(C)C#N)nc2C)ncc1C(F)(F)F [GNE-0877] (top concentration 1000 nM) | 0 | 0 | 0 | 0 | 0 | 0 | 0 | 0 | 0 | 0 | 0 | 0 | 0 | 0 | 0 | 0 | 0 | 0 | 0 | 0
4 | COc1cc2nccc(Oc3ccc(NC(=O)Nc4cc(C)on4)c(Cl)c3)c2cc1OC [Tivozanib] (top concentration 10000 nM) | -3.64 | 5.16 | 1.26 | 17.9 | 0.86 | 12.6 | -1.04 | 3.96 | -0.74 | 2.96 | 9.06 | -0.34 | -3.64 | 3.46 | -3.44 | 10.9 | 4.76 | 21.7 | -3.64 | 5.66
5 | CC(=O)[C@]1(O)Cc2c(O)c3c(c(O)c2[C@@H](O[C@H]2C[C@H](N)[C@H](O)[C@H](C)O2)C1)C(=O)c1ccccc1C3=O [Idarubicin] (top concentration 1000 nM) | 13.7 | 8.84 | 8.84 | 12.3 | 13.2 | 16.7 | 3.14 | 14.9 | 7.24 | 8.14 | 8.74 | 8.04 | 14.6 | 7.74 | -2.56 | 12.7 | 6.74 | 9.74 | -12.6 | 1.94
6 | FC(F)c1nc2ccccc2n1-c1nc(N2CCOCC2)nc(N2CCOCC2)n1 [ZSTK474] (top concentration 10000 nM) | 13.7 | 8.46 | 9.36 | 3.76 | 1.46 | 4.86 | 14.4 | 13.6 | 18.5 | 0.96 | 11.9 | 11.4 | 10.3 | 7.26 | 0.56 | 28.4 | 5.66 | 2.56 | -7.04 | -1.04
7 | CN(C)CC#Cc1ccc(OCCCc2sc(N3CCc4cccc(C(=O)Nc5nc6ccccc6s5)c4C3)nc2C(=O)O)c(F)c1 (top concentration 10000 nM) | 15.7 | -2.04 | 32.8 | 17.1 | 39.8 | 21.7 | 27.2 | 26.4 | 2.06 | 11 | 3.46 | 1.66 | 19 | 34.8 | -1.24 | -1.54 | -0.24 | 13.6 | -3.34 | -3.64
8 | CN(C)C(=N)NC(=N)N [Metformin] (top concentration 100000 nM) | -0.02 | -0.02 | -0.02 | -0.02 | -0.02 | -0.02 | -0.02 | -0.02 | -0.02 | -0.02 | -0.02 | 0.58 | -0.02 | -0.02 | -0.02 | -0.02 | -0.02 | -0.02 | -0.02 | -0.02
9 | CN1CCN(c2cc(C(=O)Nc3ccc4c(c3)-c3c(c(C(N)=O)nn3-c3ccc(F)cc3)CC4)c(Cl)cn2)CC1 [PHA-408] (top concentration 10000 nM) | 5.68 | 0.78 | 0.48 | 1.88 | -1.22 | 5.08 | 3.38 | -3.92 | 2.58 | 0.18 | 3.88 | 1.58 | -0.72 | 0.58 | -4.62 | 5.28 | -2.02 | 3.08 | -4.92 | -1.22
10 | C[C@H]1C[C@@H]2[C@H]([C@@H](O)C[C@@]3(C)[C@H]2CC[C@]3(O)C(=O)CO)[C@@]2(C)C=CC(=O)C=C12 [Methylprednisolone] (top concentration 10000 nM) | 27.2 | 22.3 | 6.4 | 13.9 | 5.4 | 14.2 | 22.9 | 18.5 | 1.5 | -2.3 | 21.1 | 26.5 | 33.2 | -2.3 | -2.3 | 30.2 | 7.9 | 32.9 | -2.3 | 15
11 | COC(=O)c1ccc2c(c1)[nH]c1ncnc(NCCCN3CCCCC3)c12 [UM729] (top concentration 10000 nM) | 5.74 | 1.64 | 3.84 | 2.84 | 0.94 | -0.06 | 1.44 | 6.34 | -0.06 | 2.74 | 2.84 | -0.06 | 0.54 | 2.04 | 0.44 | 3.24 | 2.14 | 2.24 | -0.06 | -0.06
12 | CCCCCOC(=O)Nc1nc(=O)n([C@@H]2O[C@H](C)[C@@H](O)[C@H]2O)cc1F [Capecitabine] (top concentration 10000 nM) | -0.06 | -0.06 | -0.06 | -0.06 | -0.06 | -0.06 | -0.06 | -0.06 | 0.44 | -0.06 | -0.06 | 1.04 | -0.06 | -0.06 | -0.06 | -0.06 | 0.04 | -0.06 | -0.06 | -0.06
13 | C[C@@H](C(=O)O)c1ccc(-c2ccccc2)c(F)c1 [Tarenflurbil] (top concentration 10000 nM) | -0.16 | -0.16 | -0.16 | -0.16 | -0.16 | -0.16 | -0.16 | -0.16 | 4.74 | -0.16 | -0.16 | -0.16 | -0.16 | 0.14 | 0.04 | -0.16 | -0.16 | 0.44 | 4.74 | 3.64
14 | COc1cc2nccc(Oc3ccc(NC(=O)NC4CC4)c(Cl)c3)c2cc1C(N)=O [Lenvatinib] (top concentration 2500 nM) | 0.06 | 2.16 | 0.16 | 5.06 | -0.24 | 6.16 | -0.24 | 1.56 | 0.76 | 1.86 | 0.86 | 1.46 | -0.24 | 0.36 | -0.24 | 5.36 | 0.36 | 6.46 | -0.24 | 0.66
15 | CC[C@]1(O)C[C@H]2CN(CCc3c([nH]c4ccccc34)[C@@](C(=O)OC)(c3cc4c(cc3OC)N(C=O)[C@H]3[C@@](O)(C(=O)OC)[C@H](OC(C)=O)[C@]5(CC)C=CCN6CC[C@]43[C@@H]65)C2)C1 [Vincristine] (top concentration 1000 nM) | 14.9 | 17 | 4.42 | 1.62 | 8.92 | 16.3 | 1.22 | 13.7 | -6.38 | 4.72 | 15.8 | 5.52 | 4.22 | 4.02 | 12.3 | 17.2 | 12.7 | 18.5 | -11.1 | -0.08
16 | CC[C@H](C)C(=O)O[C@H]1C[C@@H](C)C=C2C=C[C@H](C)[C@H](CC[C@@H]3C[C@@H](O)CC(=O)O3)[C@H]21 [Lovastatin] (top concentration 10000 nM) | 7.8 | 0.1 | 0 | -0.1 | 3.6 | -0.1 | 0 | -0.1 | 2.5 | -0.1 | 4.3 | 8.7 | 8.4 | -0.1 | -0.1 | 0.2 | 5 | -0.1 | -0.1 | -0.1
17 | NCCNc1ccc(NCCN)c2c1C(=O)c1ccncc1C2=O [Pixantrone] (top concentration 10000 nM) | -2.76 | -0.36 | -2.06 | -2.16 | -2.76 | -2.76 | 0.34 | -2.76 | -1.36 | -1.36 | -0.56 | 1.34 | -2.76 | -2.76 | -2.76 | -2.76 | -1.36 | -2.76 | -2.76 | -2.06
18 | CNC(=O)c1ccc(N2C(=S)N(c3ccc(C#N)c(C(F)(F)F)c3)C(=O)C2(C)C)cc1F [Enzalutamide] (top concentration 10000 nM) | -0.82 | 1.48 | -0.52 | -0.52 | 1.18 | 1.58 | -0.82 | 0.68 | -0.82 | -0.82 | 5.18 | -0.12 | -0.82 | -0.82 | -0.82 | -0.72 | -0.82 | 3.38 | -0.32 | -0.82
